# Data as given in patent publication US5407951A, “Sulphonamidocycloalkane compounds, pharmaceutical compositions containing them, and methods of use thereof” (Boehringer Mannheim GmbH, priority 1988, dated 1995).
# Experiments:
# [1] = test system: Platelet-rich human blood plasma; assay: In vitro inhibition of platelet aggregation induced by thromboxane mimetic U46619 (Born and Cross, aggregometer); assay type: cell-based; details: citrated platelet-rich human plasma, measured for five minutes
# Description: (a) In vitro Inhibition of Platelet Aggregation.
# Platelet-rich human blood plasma was treated with 3.2% citrate at a volume ratio of 1:9 to inhibit clotting. A selective thromboxane mimetic, U46619, which is a stable analog of the prostaglandin endoperoxide PGH2, as described by Coleman et al., Brit. J. Pharmocol. 68,127P (1980) was obtained from Upjohn & Co., Kalamazoo, Mich.
# The test protocol was that described by Born and Cross, J. Physiol. 168,178 (1963) with the degree of aggregation measured using a 4-channel aggregometer (Profiler, Bio/Data Co.). The compounds of this invention, Examples 2.1, 4(cis) 4(trans), 6 ad 7 were diluted in saline, at final concentrations of 10^-4 to 10^-9M. Saline was used as a control. Measurements were made for a period of five minutes, After addition of the tromboxane mimetic. From the data obtained, an inhibitory concentration IC50 was calculated using standard methods.
# Male NMRI mice = assay: In vivo inhibition of induced pulmonary emboli (survival after lethal dose of U46619); details: lethal dose U46619 (800-1000 ug/kg) into tail vein four hours later, survival after 24 hours, groups of 5; for Survival Rate of Mouse 1 mg/kg, 4 h in %: 1 mg/kg by gastric route in 1% methyl cellulose; for Survival Rate of Mouse 25 mg/kg, 4 h in %: 25 mg/kg by gastric route in 1% methyl cellulose
# Description: (b) In vivo Inhibition of Induced Pulmonary Emboli
# Male NMRI mice, having a body weight of approximately 25g, were separated into groups of 5. Representative examples of the compounds of this invention listed in part (a) were suspended 1% methyl cellulose and administered to the animals by gastric incubation in amounts providing 1/mg/kg and 25/mg/kg of the antagonist, Four hours after incubation, a previously determined lethal dose of U46619 (800-1000 ug/kg) was injected into the tail vein of each animals. The survival rates for each group of mice was determined after 24 hours. The results are shown in Table 1 and indicate correlation with the IC50 measured in vitro.
SMILES,IC50 [1],"Survival Rate of Mouse 1 mg/kg, 4 h in % (Male NMRI mice)","Survival Rate of Mouse 25 mg/kg, 4 h in % (Male NMRI mice)"
"O=C(CC1CCC(CCNS(=O)(=O)c2ccc(Cl)cc2)CC1)Nc1nnn[nH]1 (stereo not drawn) [Example 6, 4-[2-(4-Chlorobenzenesulphonylamino)-ethyl]-cyclohexylacetic acid (tetrazol-5-yl-amide)]",2500 nM,100%,100%
O=C(O)C1CCC(CCNS(=O)(=O)c2ccc(Cl)cc2)CC1 (stereo not drawn) [Example 2.1],2000 nM,100%,100%
"O=C(CO[C@H]1CC[C@H](CCNS(=O)(=O)c2ccc(Cl)cc2)CC1)Nc1nnn[nH]1 [4 (trans), trans-4-[2-(4-chlorobenzenesulphonylamino)-ethyl]-cyclohexyloxy acetic acid (tetrazol-5-yl-amide)]",5800 nM,60%,100%
"O=C(CO[C@H]1CC[C@@H](CCNS(=O)(=O)c2ccc(Cl)cc2)CC1)Nc1nnn[nH]1 [4 (cis), cis-4-[2-(4-Chlorobenzenesulphonylamino)-ethyl]cyclohexyloxyacetic acid (tetrazol-5-yl)-amide]",4600 nM,100%,100%
"O=S(=O)(NCCC1CCC(OCc2nn[nH]n2)CC1)c1ccc(Cl)cc1 (stereo not drawn) [Example 7, 1-[2-(4-Chlorobenzenesulphonylamino)-ethyl]-4-(tetrazol-5-yl-methyleneoxy)-cyclohexane]",420 nM,100%,100%
